Experiment [1] can be described thus: Analgesic antagonist testing against analgesic agonists of the W-1 to W-19 and 0-1 to 0-3 series, e.g. W-3 (phenylquinone writhing). Format: in vivo, male Swiss albino mice. As to the method:
(§1) The percent change is calculated according to the following equation: % change=100- (no. of writhes in treated group/no. of writhes in control group)×100.

Experiment [2] is classed as in vivo, male Swiss albino mice. The settings on record: for Analgesic action, inhibition action on phenylquinone writhing: dose giving 50 % inhibition / Analgesic action, inhibition action on phenylquinone writhing, % inhibition: subcutaneous; for Analgesic action, inhibition action on phenylquinone writhing: dose giving 50 % inhibition: 30 min before phenyl-p-benzoquinone, dose with 50 % inhibition; for Analgesic (agonist) activity, in words: phenylquinone writhing, mice. As to the method: as §1
(An intraperitoneal irritant provokes the stretching counted in writhing tests.)

Setting [3] is: at the dose listed for the substance under E1.

Entries after “also recorded” stand apart in the source; their conditions may differ. Where two headings read alike, the source gives them in different places.

In the case of `C=CCN1CC[C@]23c4c5ccc(O)c4O[C@H]2C(=O)CC[C@@]3(O)[C@H]1C5` [Naloxone, reference compound], the “Antagonist activities, % inhibition of writhing with antagonist + agonist” value in experiment [1] (Expt. 5: Naloxone (1.0 mg/kg sc) before W-3 (5.0 mg/kg sc)) is listed as 45%. Further, the “Block of agonist analgesic effect, in words” value in experiment [1] (Naloxone (1.0 mg/kg sc) vs W-3 (5.0 mg/kg sc)) is listed as “partial block; also recorded: partially blocks”. Further, the “Antagonist activity, in words” value in experiment [1] (toward W-3, dose not given) is “acted as an antagonist toward W-3”.

Turning to `CN1CCCC(Br)C1=NC#N` (racemic) [Compound 0-1, 3-Bromo-1-methylpiperidylidene-2-cyanamide], in experiment [2], the “Analgesic action, inhibition action on phenylquinone writhing: dose giving 50 % inhibition” value (from here on “Analgesic action … dose giving 50 % inhibition”) amounted to 700 µg/kg. Also, the “Analgesic action, inhibition action on phenylquinone writhing, % inhibition” value in experiment [2] (setting [3]) stood at 50%.

For the molecule `Nc1ccc(S(=O)(=O)N=C2CCCCN2CCc2ccccc2)cc1` [Compound W-16, 1-Phenylethylpiperidylidene-2-(4-aminophenyl)sulfonamide], in experiment [2], the “Analgesic (agonist) activity, in words” value was “active analgesics, being comparable to morphine sulfate”. Moreover, the “Analgesic action, inhibition action on phenylquinone writhing, % inhibition” value in experiment [2] (dose 0.20 mg/kg) is 56%.

`CCCN1CCCCC1=NS(=O)(=O)c1ccc(Cl)cc1` [Compound W-26, 1-n-Propylpiperidylidene-2-(4-chlorophenyl)sulfonamide]: the “Analgesic action … dose giving 50 % inhibition” value in experiment [2] came to 1400 µg/kg. Moreover, the “Analgesic action, inhibition action on phenylquinone writhing, % inhibition” value in experiment [2] (setting [3]) was determined as 50%.

Regarding `Nc1ccc(CCN2CCCCC2=NS(=O)(=O)c2ccc(Cl)cc2)cc1` [Compound W-19, 1-(4-Aminophenylethyl)piperidylidene-2-(4-chlorophenyl)sulfonamide], the “Analgesic action, inhibition action on phenylquinone writhing, % inhibition” value in experiment [2] (setting [3]) stood at 50%.

Consider `CN1CCCCC1=NS(=O)(=O)c1ccc(N)cc1` [Compound W-9, 1-Methylpiperidylidene-2-(4-aminophenyl)sulfonamide], for which, in experiment [2], the “Analgesic (agonist) activity, in words” value is on record as “active analgesics, being comparable to morphine sulfate” and the “Analgesic action … dose giving 50 % inhibition” value was 7 µg/kg. For the same molecule, the “Analgesic action, inhibition action on phenylquinone writhing, % inhibition” value in experiment [2] (setting [3]) came to 50%.

For `O=S(=O)(N=C1CCCCN1CCc1ccccc1)c1ccc(Cl)cc1` [Compound W-15, 1-Phenylethylpiperidylidene-2-(4-chlorophenyl)sulfonamide], in experiment [2], the “Analgesic (agonist) activity, in words” value is recorded as “active analgesics, being comparable to morphine sulfate” and the “Analgesic action … dose giving 50 % inhibition” value is 7 µg/kg. Besides, the “Analgesic action, inhibition action on phenylquinone writhing, % inhibition” value in experiment [2] (setting [3]) stood at 50%.

As to `CN1CCCCC1=NS(=O)(=O)c1cccc([N+](=O)[O-])c1` [Compound W-7, 1-Methylpiperidylidene-2-(3-nitrophenyl)sulfonamide], in experiment [2], the “Analgesic (agonist) activity, in words” value was “active analgesics, being comparable to morphine sulfate” and the “Analgesic action … dose giving 50 % inhibition” value was found to be 2.8 µg/kg. The “Analgesic action, inhibition action on phenylquinone writhing, % inhibition” value in experiment [2] (setting [3]) worked out at 50%.

Consider `COc1ccc(S(=O)(=O)N=C2CCCCN2C)cc1` [Compound W-4, 1-Methylpiperidylidene-2-(4-methoxyphenyl)sulfonamide], for which, in experiment [2], the “Analgesic (agonist) activity, in words” value is reported as “active analgesics, being comparable to morphine sulfate” and the “Analgesic action … dose giving 50 % inhibition” value came out at 2 µg/kg. Also, the “Analgesic action, inhibition action on phenylquinone writhing, % inhibition” value in experiment [2] (setting [3]) is given as 50%.

Consider `CC(=O)Oc1ccccc1C(=O)O` [Aspirin (TM), reference compound], for which the “Analgesic action … dose giving 50 % inhibition” value in experiment [2] was found to be 50000 µg/kg. Further, the “Analgesic action, inhibition action on phenylquinone writhing, % inhibition” value in experiment [2] (setting [3]) is recorded as 50%.

Turning to `CN1CCCCC1=NS(=O)(=O)c1ccc([N+](=O)[O-])cc1` [Compound W-6, 1-Methylpiperidylidene-2-(4-nitrophenyl)sulfonamide], in experiment [2], the “Analgesic (agonist) activity, in words” value is recorded as “active analgesics, being comparable to morphine sulfate” and the “Analgesic action … dose giving 50 % inhibition” value came to 2.8 µg/kg. Also, the “Analgesic action, inhibition action on phenylquinone writhing, % inhibition” value in experiment [2] (setting [3]) was 50%.
